In patent publication US12168650B2, “Crystalline forms of 3-(5-(2-hydroxy-2-methylpropoxy)-6-methylpyrazin-2-yl)-1H-indole-7-carbonitrile” (NIDO BIOSCIENCES, INC., priority 2022, dated 2024):
Several values for one entry are separate records, joined by “and”; a condition that tells them apart may be missing. Equal values may be shown once.

Tests used:
[1] = Interconversion of polymorphs (heating, dehydration, humidity, equilibration); type: physicochemical
Text: In total, 15 forms were identified to be polymorphs or pseudo-polymorphs of the free form, including seven anhydrates, Forms A, C, H, J, K. L and O; four hydrates, Forms B, F, M and N; and three solvates, Forms D, E and I. In addition, a metastable form, Form G, and an amorphous form were also obtained.
The interconversion relation of polymorphs identified is outlined in FIG. 5.

[2] = tested on: LNCaP cells expressing ARR2PB-FireflyLuc and CMV-RenillaLuc; experiment: LNCaP ARR2PB-FireflyLuc reporter assay; type: cell-based; settings: Homo sapiens, +/−0.5 nM DHT, 48 h at 37° C.
Method: LNCaP cells expressing ARR2PB-FireflyLuc and CMV-RenillaLuc were treated with indicated concentrations of the test compound, enzalutamide (negative control), or DHT (positive control)+/−0.5 nM DHT for 48 h at 37° C. […] signals were read with the ImageXpress Micro Confocal System. Remaining activity (antagonist mode) was calculated as % Remaining Activity=100×[(Readsample−LCave)/(HCave−LCave)] where HC is cells treated with 0.5 nM DHT only and LC is cells treated with 10 uM enzalutamide+0.5 nM DHT. Activation (agonist mode) was calculated as % Activation=100×[(ReadSample−LCave)/(HCave−LCave)] where HC is cells treated with 1 uM DHT and LC is cells treated with DMSO. Dose response curves and IC50 values were calculated using non-linear regression analysis in XLfit.

[3] = Solution state chemical stability; type: physicochemical; settings: for Purity: ~10 mg/ml
Method: The solution state chemical stability was carried out in acetone, MEK, and 2-MeTHF solvent systems at 50° C. and 55° C. […] The purity of the compound degraded from 99.43% to 98.27% after 48 h holding at 55° C. in MEK solvent system.
2-MeTHF/n-hep was selected as the potential solvent system for the crystallization. The solution state chemical stability was carried out in 2-MeTHF solvent systems at higher temperature (60° C. and 70° C.).

[4] = Competitive equilibration experiments of anhydrates; settings: at both 25° C. and 50° C.
Method: Relative stability of the anhydrate Forms A, C, H and J was investigated with competitive equilibration experiments.
Relative stability of the anhydrates Forms C, K and L was investigated with competitive equilibration experiments.
To determine relative stability of anhydrates, competitive equilibration experiments were conducted in different solvent systems.
About 2 mg of each anhydrate was added to 0.3-0.4 mL saturated solutions of selected solvents. Obtained suspensions were stirred at 25° C. for 3-10 days, respectively. Solid parts (wet cakes) were isolated by centrifugation filtration and investigated by XRPD.

For `Cc1nc(-c2c[nH]c3c(C#N)cccc23)cnc1OCC(C)(C)O` [Form I, 3-(5-(2-hydroxy-2-methylpropoxy)-6-methylpyrazin-2-yl)-1H-indole-7-carbonitrile], the Form conversion ([1]; after heating to 140° C. by TGA and cooled to room temperature) was “converted to physical mixture of Form C, Form N and an unknown peak”.
For `Cc1nc(-c2c[nH]c3c(C#N)cccc23)cnc1OCC(C)(C)O` [Form D, 3-(5-(2-hydroxy-2-methylpropoxy)-6-methylpyrazin-2-yl)-1H-indole-7-carbonitrile], the Form conversion ([1]; after desolvation) was “converts to Form C”.
For `Cc1nc(-c2c[nH]c3c(C#N)cccc23)cnc1OCC(C)(C)O` [amorphous form, 3-(5-(2-hydroxy-2-methylpropoxy)-6-methylpyrazin-2-yl)-1H-indole-7-carbonitrile], the Form conversion ([1]; after exposure to high humidity) was “crystallized to Form N”.
With `Cc1nc(-c2c[nH]c3c(C#N)cccc23)cnc1OCC(C)(C)O` [Form E, 3-(5-(2-hydroxy-2-methylpropoxy)-6-methylpyrazin-2-yl)-1H-indole-7-carbonitrile] the Form conversion ([1]; after heating to 100° C. by TGA and cooled to room temperature) was “converts to physical mixture of Form F and Form G”.
In the case of `Cc1nc(-c2c[nH]c3c(C#N)cccc23)cnc1OCC(C)(C)O` [Form B, 3-(5-(2-hydroxy-2-methylpropoxy)-6-methylpyrazin-2-yl)-1H-indole-7-carbonitrile], the Form conversion ([1]; after dehydration) is reported as “converts to Form K”.
In the case of `Cc1nc(-c2c[nH]c3c(C#N)cccc23)cnc1OCC(C)(C)O` [Form K, 3-(5-(2-hydroxy-2-methylpropoxy)-6-methylpyrazin-2-yl)-1H-indole-7-carbonitrile], the Form conversion ([1]; after melting and re-crystallization (DSC, VT-XRPD)) is reported as “converts to Form L”, the Form conversion ([1]; exposure to 25° C. in 40-70% RH for 6 days) is reported as “reverts back to Form B” and the Form conversion ([1]; exposure to 25° C./92% RH for 6 days) is reported as “converts to hydrate Form B”.
With `Cc1nc(-c2c[nH]c3c(C#N)cccc23)cnc1OCC(C)(C)O` [3-(5-(2-hydroxy-2-methylpropoxy)-6-methylpyrazin-2-yl)-1H-indole-7-carbonitrile] the IC50 [2] was 50 nM, the Purity ([3]; 2-MeTHF, 55° C., 0 h) was 99.35% a % and the Purity ([3]; 2-MeTHF, 55° C., 6 h) was 99.55% a %. It also gave a Purity ([3]; 2-MeTHF, 55° C., 24 h) of 99.62% a %, a Purity ([3]; 2-MeTHF, 55° C., 48 h) of 99.62% a % and a Purity ([3]; 2-MeTHF, 60° C., 0 h) of 99.54% a %. For the same compound, the Purity ([3]; 2-MeTHF, 60° C., 24 h) was 99.69% a %, the Purity ([3]; 2-MeTHF, 60° C., 48 h) was 99.56% a % and the Purity ([3]; 2-MeTHF, 70° C., 0 h) was 99.53% a %. For the same compound, the Purity ([3]; 2-MeTHF, 70° C., 24 h) was 99.70% a %, the Purity ([3]; 2-MeTHF, 70° C., 48 h) was 99.44% a % and the Purity ([3]; 2-MeTHF/n-hep = 1 v/1 v, 70° C., 0 h) was 98.45% a %. It also gave a Purity ([3]; 2-MeTHF/n-hep = 1 v/1 v, 70° C., 24 h) of 98.44% a %, a Purity ([3]; 2-MeTHF/n-hep = 1 v/1 v, 70° C., 48 h) of 98.44% a % and a Purity ([3]; Acetone, 50° C., 0 h) of 99.54% a %. For the same compound, the Purity ([3]; Acetone, 50° C., 6 h) was 99.50% a %, the Purity ([3]; Acetone, 50° C., 24 h) was 99.51% a % and the Purity ([3]; Acetone, 50° C., 48 h) was 99.69% a %. For the same compound, the Purity ([3]; MEK, 55° C., 0 h) was 99.43 a % and 99.43% a %, the Purity ([3]; MEK, 55° C., 6 h) was 99.23% a % and the Purity ([3]; MEK, 55° C., 24 h) was 98.54% a %. For the same compound, the Purity ([3]; MEK, 55° C., 48 h) was 98.27 a % and 98.27% a %, the “Solution state chemical stability” value ([3]; after 48 h holding in 2-MeTHF at 60° C. and 70° C.) was “stable” and the “Solution state chemical stability” value ([3]; after 48 h holding in 2-MeTHF/n-hep=1v/1v at 70° C.) was “stable”. The “Solution state chemical stability” value ([3]; after 48 h holding in both acetone and 2-MeTHF systems (50° C. and 55° C.)) was “stable”.
In the case of `Cc1nc(-c2c[nH]c3c(C#N)cccc23)cnc1OCC(C)(C)O` [Form G, 3-(5-(2-hydroxy-2-methylpropoxy)-6-methylpyrazin-2-yl)-1H-indole-7-carbonitrile], the Form conversion ([1]; equilibration in DMSO/water system at 25° C. for 6 days) is reported as “converts to anhydrate Form H”.
For `Cc1nc(-c2c[nH]c3c(C#N)cccc23)cnc1OCC(C)(C)O` [Form M, 3-(5-(2-hydroxy-2-methylpropoxy)-6-methylpyrazin-2-yl)-1H-indole-7-carbonitrile], the Form conversion ([1]; equilibration in MeOH at 25° C. for another 1 day) was “converts to Form B” and the Form conversion ([1]; wet cake from methanol, once exposed to the air) was “converted to Form B”.
In the case of `Cc1nc(-c2c[nH]c3c(C#N)cccc23)cnc1OCC(C)(C)O` [Form A, 3-(5-(2-hydroxy-2-methylpropoxy)-6-methylpyrazin-2-yl)-1H-indole-7-carbonitrile], the “Relative thermodynamic stability of anhydrates” value [4] is reported as “converts to Form C”.
